Experimental data as given in ChEMBL document CHEMBL1133403 (Bioorg Med Chem Lett, 2000).
Active and inactive are the calls of the source. The rule behind the calls is not given here.

How the values were obtained:
[1] = biological target: T1, Androgen receptor (Homo sapiens, UniProt P10275); experiment: Cross-reactivity as binding to human androgen receptor (hAR); format: functional
T1 sequence (P10275 whole entry): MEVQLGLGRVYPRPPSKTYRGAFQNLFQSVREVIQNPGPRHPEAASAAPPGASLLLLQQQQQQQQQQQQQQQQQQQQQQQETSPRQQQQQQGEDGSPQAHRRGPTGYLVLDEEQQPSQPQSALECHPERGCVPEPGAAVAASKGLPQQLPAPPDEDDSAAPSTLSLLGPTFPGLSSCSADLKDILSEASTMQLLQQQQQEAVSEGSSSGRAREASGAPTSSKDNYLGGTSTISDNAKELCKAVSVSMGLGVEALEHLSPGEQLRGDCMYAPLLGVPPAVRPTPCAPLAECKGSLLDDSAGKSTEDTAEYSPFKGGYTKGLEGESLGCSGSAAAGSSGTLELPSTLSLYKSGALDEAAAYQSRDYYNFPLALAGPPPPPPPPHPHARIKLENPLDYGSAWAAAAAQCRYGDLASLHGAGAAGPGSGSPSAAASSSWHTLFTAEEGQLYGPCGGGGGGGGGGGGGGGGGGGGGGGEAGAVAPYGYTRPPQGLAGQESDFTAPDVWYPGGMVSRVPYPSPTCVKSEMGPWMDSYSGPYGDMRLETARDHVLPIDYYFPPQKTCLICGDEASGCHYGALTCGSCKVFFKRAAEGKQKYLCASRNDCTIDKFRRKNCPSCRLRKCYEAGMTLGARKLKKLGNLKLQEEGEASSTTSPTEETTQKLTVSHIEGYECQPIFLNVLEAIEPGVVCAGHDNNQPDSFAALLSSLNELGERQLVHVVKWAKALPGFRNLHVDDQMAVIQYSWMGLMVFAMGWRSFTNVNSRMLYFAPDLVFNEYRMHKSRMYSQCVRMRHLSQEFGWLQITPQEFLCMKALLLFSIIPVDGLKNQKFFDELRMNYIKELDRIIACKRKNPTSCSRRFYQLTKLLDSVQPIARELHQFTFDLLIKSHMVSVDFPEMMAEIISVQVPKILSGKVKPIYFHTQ

[2] = biological target: T2, Glucocorticoid receptor (Homo sapiens, UniProt P04150); experiment: Cross-reactivity as binding to human glucocorticoid receptor (hGR); format: functional
T2 sequence (P04150 whole entry): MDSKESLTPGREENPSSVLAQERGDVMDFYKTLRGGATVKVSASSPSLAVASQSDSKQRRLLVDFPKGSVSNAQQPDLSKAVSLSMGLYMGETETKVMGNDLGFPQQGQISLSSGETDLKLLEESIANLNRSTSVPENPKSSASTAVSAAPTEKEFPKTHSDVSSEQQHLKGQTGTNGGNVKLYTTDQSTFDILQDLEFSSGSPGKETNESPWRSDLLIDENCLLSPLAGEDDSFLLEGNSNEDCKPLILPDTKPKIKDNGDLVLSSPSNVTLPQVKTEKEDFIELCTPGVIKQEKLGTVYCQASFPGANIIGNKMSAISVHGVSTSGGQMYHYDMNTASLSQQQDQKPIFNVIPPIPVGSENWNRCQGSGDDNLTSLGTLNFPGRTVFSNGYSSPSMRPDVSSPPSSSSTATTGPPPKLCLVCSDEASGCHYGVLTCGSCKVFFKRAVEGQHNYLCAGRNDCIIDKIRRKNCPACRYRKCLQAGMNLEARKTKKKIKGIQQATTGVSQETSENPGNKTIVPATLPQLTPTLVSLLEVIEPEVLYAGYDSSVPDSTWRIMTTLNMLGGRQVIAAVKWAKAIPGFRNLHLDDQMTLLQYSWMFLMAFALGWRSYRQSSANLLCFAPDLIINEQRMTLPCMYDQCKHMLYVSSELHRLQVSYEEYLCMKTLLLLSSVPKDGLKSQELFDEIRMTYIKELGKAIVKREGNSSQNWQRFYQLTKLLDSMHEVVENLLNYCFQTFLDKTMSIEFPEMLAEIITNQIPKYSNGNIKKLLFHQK

[3] = biological target: T3, Mineralocorticoid receptor (Homo sapiens, UniProt P08235); experiment: Cross-reactivity as binding to human mineralocorticoid receptor (hMR); format: functional
T3 sequence (P08235 whole entry): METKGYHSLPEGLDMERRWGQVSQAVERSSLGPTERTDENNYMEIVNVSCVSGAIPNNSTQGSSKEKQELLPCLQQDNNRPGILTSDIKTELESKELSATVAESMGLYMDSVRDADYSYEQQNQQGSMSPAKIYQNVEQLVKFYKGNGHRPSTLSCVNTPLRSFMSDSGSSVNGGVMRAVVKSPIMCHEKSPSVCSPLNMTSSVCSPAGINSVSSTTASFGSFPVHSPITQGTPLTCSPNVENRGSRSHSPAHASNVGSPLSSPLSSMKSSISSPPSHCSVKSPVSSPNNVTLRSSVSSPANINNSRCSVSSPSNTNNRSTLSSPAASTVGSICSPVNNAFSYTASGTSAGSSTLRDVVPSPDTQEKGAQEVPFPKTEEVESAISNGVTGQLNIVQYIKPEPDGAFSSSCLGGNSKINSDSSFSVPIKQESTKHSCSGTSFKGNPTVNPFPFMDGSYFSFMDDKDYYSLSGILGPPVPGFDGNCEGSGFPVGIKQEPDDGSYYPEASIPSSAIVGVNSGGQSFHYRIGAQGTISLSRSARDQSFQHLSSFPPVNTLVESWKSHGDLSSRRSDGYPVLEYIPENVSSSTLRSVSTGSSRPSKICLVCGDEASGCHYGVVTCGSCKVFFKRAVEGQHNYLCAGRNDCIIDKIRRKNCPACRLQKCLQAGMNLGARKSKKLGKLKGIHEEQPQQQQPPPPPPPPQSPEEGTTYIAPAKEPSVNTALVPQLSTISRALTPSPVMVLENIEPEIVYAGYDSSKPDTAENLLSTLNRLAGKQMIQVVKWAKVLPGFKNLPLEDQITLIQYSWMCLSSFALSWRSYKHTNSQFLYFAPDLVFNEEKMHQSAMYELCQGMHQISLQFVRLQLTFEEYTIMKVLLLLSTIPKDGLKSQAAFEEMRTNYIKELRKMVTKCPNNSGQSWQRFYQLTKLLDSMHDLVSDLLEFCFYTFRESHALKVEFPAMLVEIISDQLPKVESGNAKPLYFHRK

[4] = biological target: T4, Progesterone receptor (Homo sapiens, UniProt P06401); experiment: Human progesterone receptor (hPR) agonist activity in T47D human breast cancer cell line; format: functional, cell-based
T4 sequence (P06401 whole entry): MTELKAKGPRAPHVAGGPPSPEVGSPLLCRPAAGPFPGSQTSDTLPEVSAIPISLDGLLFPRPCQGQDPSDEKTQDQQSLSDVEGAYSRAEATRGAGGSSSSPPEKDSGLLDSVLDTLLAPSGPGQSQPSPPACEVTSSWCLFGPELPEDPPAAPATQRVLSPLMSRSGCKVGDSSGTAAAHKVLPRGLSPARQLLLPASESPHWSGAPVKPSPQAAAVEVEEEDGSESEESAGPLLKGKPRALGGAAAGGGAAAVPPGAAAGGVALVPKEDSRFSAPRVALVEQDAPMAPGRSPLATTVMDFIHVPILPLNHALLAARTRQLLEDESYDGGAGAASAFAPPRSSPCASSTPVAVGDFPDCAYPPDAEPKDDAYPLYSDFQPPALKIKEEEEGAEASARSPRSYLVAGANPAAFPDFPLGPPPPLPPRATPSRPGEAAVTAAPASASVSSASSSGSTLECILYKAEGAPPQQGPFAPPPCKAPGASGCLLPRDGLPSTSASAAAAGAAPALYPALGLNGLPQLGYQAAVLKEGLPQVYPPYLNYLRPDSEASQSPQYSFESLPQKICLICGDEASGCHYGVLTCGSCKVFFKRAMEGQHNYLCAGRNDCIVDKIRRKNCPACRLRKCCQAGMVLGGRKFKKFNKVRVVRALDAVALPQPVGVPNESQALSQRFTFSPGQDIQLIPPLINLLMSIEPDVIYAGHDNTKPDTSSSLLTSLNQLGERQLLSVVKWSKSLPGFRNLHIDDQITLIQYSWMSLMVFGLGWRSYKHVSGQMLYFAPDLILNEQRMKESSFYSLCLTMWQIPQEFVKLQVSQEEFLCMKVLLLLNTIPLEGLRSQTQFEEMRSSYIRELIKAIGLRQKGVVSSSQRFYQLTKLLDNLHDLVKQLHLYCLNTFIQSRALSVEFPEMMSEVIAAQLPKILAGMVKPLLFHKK

[5] = biological target: T4, Progesterone receptor; experiment: Human progesterone receptor (hPR) agonist activity using cotransfection assay in CV-1 cells.; format: functional, cell-based
[6] = biological target: T4, Progesterone receptor; experiment: Antagonist activity against human progesterone receptor (hPR) in T47D human breast cancer cell line; format: functional, cell-based
[7] = biological target: T4, Progesterone receptor; experiment: Binding affinity against human progesterone receptor (hPR) in a competitive binding assay
[8] = biological target: T4, Progesterone receptor; experiment: Antagonist activity against human progesterone receptor (hPR) using cotransfection assay in CV-1 cells; format: functional, cell-based
[9] = biological target: T4, Progesterone receptor; experiment: Human progesterone receptor (hPR) agonist activity in T47D human breast cancer cell line; NA=not active; format: functional, cell-based
[10] = biological target: T5, Glucocorticoid receptor (Homo sapiens) (UniProt P04150); experiment: Percent inhibition of glucocorticoid receptor transcriptional activity at Dexamethasone EC50; not active; format: functional
T5 sequence (whole entry): T2 sequence (P04150 whole entry)

[11] = biological target: Estrogen receptor (Homo sapiens) (UniProt Q92731+P03372); experiment: Percent inhibition of estrogen receptor transcriptional activity at estradiol EC50; NA=not active; format: functional
[12] = biological target: T2, Glucocorticoid receptor; experiment: Cross-reactivity as binding to human glucocorticoid receptor (hGR); NA=not active; format: functional
[13] = biological target: T4, Progesterone receptor; experiment: Human progesterone receptor (hPR) agonist activity expressed in CV-1 cells; format: functional, cell-based
[14] = biological target: T6, Mineralocorticoid receptor (Homo sapiens) (UniProt P08235); experiment: Percent inhibition of mineralocorticoid receptor transcriptional activity at aldosterone EC50; NA=not active; format: functional
T6 sequence (whole entry): T3 sequence (P08235 whole entry)

[15] = biological target: T3, Mineralocorticoid receptor; experiment: Cross-reactivity as binding to human mineralocorticoid receptor (hMR); NA=not active; format: functional

Row | Compound | EC50 [4] [nM] | EC50 [5] | IC50 [6] [nM] | Ki [7] [nM] | IC50 [8] [nM] | EC50 [9] | other results
1 | CC1=CC(C)(C)Nc2ccc(-c3sc(C#N)cc3C)cc21 | 500 | Not Active | 123 | 26 | 33 |  | IC50 [1]: 200 nM; IC50 [2]: 780 nM; IC50 [3]: 2000 nM
2 | CC1=CC(C)(C)Nc2ccc(-c3cc(F)cc(C#N)c3)cc21 |  | Not Active |  |  |  |  | Efficacy [10]: inactive; Efficacy [11]: inactive; IC50 [12]: Not Active; IC50 [3]: > 1000 nM
3 | CC1=CC(C)(C)Nc2ccc(-c3ccc(C=O)s3)cc21 |  | Not Active | 78 | 80 | 729 | Not Active | 
4 | Cc1cc(C#N)sc1-c1ccc2c(c1)C(C)CC(C)(C)N2 (configuration not stated) |  |  |  |  |  |  | IC50 [1]: 45 nM; IC50 [3]: 1000 nM
5 | Cc1cc(C#N)sc1-c1ccc2c(c1)C(C)(C)C(=O)C(C)(C)N2 |  |  |  | 3.9 | 10 |  | IC50 [1]: 150 nM; IC50 [2]: 35 nM; IC50 [3]: 2100 nM; EC50 [13]: 350 nM
6 | CC1=CC(C)(C)Nc2ccc(-c3ccc(C#N)s3)cc21 | 1800 |  | 80 | 55 | 27 |  | IC50 [1]: 1110 nM; IC50 [2]: 3200 nM; Efficacy [14]: inactive; IC50 [15]: Not Active; EC50 [13]: 2900 nM
7 | CC1=CC(C)(C)Nc2ccc(-c3cc(C#N)sc3C)cc21 | 1400 | Not Active | 120 | 31 | 109 |  | 
8 | CC1=CC(C)(C)Nc2ccc(-c3c(C)sc(C#N)c3C)cc21 | 580 | Not Active | 150 | 36 | 124 |  | 
9 | CN(C)c1ccc([C@H]2C[C@]3(C)[C@@H](CC[C@]3(O)CCCO)[C@@H]3CCC4=CC(=O)CCC4=C32)cc1 [ONAPRISTONE] |  | Not Active |  |  |  | Not Active | 
10 | CC1(C)Nc2ccc(-c3csc(C#N)c3)cc2C(C)(C)C1=O |  |  |  | 12.4 | 14 |  | IC50 [1]: 1100 nM; IC50 [2]: 900 nM; IC50 [3]: 2700 nM; EC50 [13]: 1190 nM
11 | CC1=CC(C)(C)Nc2ccc(-c3ccsc3C#N)cc21 |  | Not Active | 278 | > 100 | 318 | Not Active | 

The next lines start with results.

Row | EC50 [4] [nM] | EC50 [5] | IC50 [6] [nM] | Ki [7] [nM] | IC50 [8] [nM] | EC50 [9] | Compound | other results
12 | 2650 | Not Active | 151 | 12 | 43 |  | CC1=CC(C)(C)Nc2ccc(-c3ccc(Cl)s3)cc21 | 
13 |  | Not Active | 105 | 25 | 232 | Not Active | CC1=CC(C)(C)Nc2ccc(-c3sccc3C)cc21 | 
14 |  | Not Active | 250 | 249 | 242 | Not Active | CC1=CC(C)(C)Nc2ccc(-c3cc(Br)c(C#N)s3)cc21 | 
15 |  | Not Active | 700 | 237 | 416 | Not Active | CC1=CC(C)(C)Nc2ccc(-c3cccs3)cc21 | 
16 | 700 | Not Active | 120 | 433 | 52 |  | CC1=CC(C)(C)Nc2ccc(-c3sc(C#N)cc3Br)cc21 | 
17 |  | Not Active | 71 | 31 | 65 | Not Active | CC1=CC(C)(C)Nc2ccc(-c3ccc(Br)s3)cc21 | 
18 |  | Not Active | 102 | 37 | 245 | Not Active | CC1=CC(C)(C)Nc2ccc(-c3csc(C=O)c3)cc21 | 
19 | 3500 |  | 190 | 32 | 105 |  | CC1=CC(C)(C)Nc2ccc(-c3cc(Br)cs3)cc21 | 
